Data from ChEMBL document CHEMBL1148465, “Carbonic anhydrase inhibitors: the first selective, membrane-impermeant inhibitors targeting the tumor-associated isozyme IX” (Bioorg Med Chem Lett, 2004).

Legend:
[1] = molecular target: Carbonic anhydrase 9 (Homo sapiens, UniProt Q16790)
Description: Inhibitory activity against human carbonic anhydrase IX

[2] = molecular target: T1, Carbonic anhydrase 4 (Bos taurus, UniProt Q95323)
T1 sequence (Q95323 whole entry): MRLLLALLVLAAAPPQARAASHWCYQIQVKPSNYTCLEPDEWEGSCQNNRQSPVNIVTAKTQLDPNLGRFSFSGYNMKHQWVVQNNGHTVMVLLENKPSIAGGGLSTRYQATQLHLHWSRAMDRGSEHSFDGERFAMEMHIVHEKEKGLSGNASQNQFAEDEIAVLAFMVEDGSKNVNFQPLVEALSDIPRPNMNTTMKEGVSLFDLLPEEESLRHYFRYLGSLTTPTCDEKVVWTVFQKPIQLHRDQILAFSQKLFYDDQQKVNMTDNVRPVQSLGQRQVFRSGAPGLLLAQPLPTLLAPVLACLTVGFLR
Description: Inhibitory activity against carbonic anhydrase IV from bovine lung microsomes

[3] = molecular target: Carbonic anhydrase 1 (Homo sapiens, UniProt P00915)
Description: Inhibitory activity against human carbonic anhydrase I

[4] = molecular target: Carbonic anhydrase 2 (Homo sapiens, UniProt P00918)
Description: Inhibitory activity against human carbonic anhydrase II

Carbonic anhydrase 1, sequence (P00915 whole entry): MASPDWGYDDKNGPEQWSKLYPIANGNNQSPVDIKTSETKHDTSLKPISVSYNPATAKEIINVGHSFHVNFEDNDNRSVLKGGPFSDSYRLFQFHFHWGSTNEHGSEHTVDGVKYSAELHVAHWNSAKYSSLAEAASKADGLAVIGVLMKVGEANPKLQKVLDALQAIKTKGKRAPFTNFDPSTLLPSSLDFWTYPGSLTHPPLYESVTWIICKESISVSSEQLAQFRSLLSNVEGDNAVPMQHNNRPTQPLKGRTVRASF

Structure (SMILES)	Ki [1]	Ki [2]	Ki [3]	Ki [4]
CC(C)(C)c1cc(-c2ccccc2)cc(-c2ccccc2)[n+]1Cc1ccc(S(N)(=O)=O)cc1	> 0.5 µM	–	–	–
NS(=O)(=O)c1ccc(C[n+]2c(-c3ccccc3)cccc2-c2ccccc2)cc1	–	1.95 µM	280 µM	–
CCCc1cc(-c2ccccc2)cc(CCC)[n+]1CCc1ccc(S(N)(=O)=O)cc1	–	–	7 µM	–
Cc1cc(-c2ccccc2)cc(C)[n+]1Cc1ccc(S(N)(=O)=O)cc1	–	0.07 µM	4 µM	–
CC(C)c1cc(-c2ccccc2)cc(-c2ccccc2)[n+]1Cc1ccc(S(N)(=O)=O)cc1	–	–	112 µM	–
CCc1cc(-c2ccccc2)cc(CC)[n+]1Cc1ccc(S(N)(=O)=O)cc1	–	–	2 µM	0.021 µM
Cc1cc(C(C)C)[n+](CCc2ccc(S(N)(=O)=O)cc2)c(C(C)C)c1	–	0.07 µM	3 µM	0.02 µM
CCc1cc(-c2ccccc2)cc(-c2ccccc2)[n+]1CCc1ccc(S(N)(=O)=O)cc1	–	–	40 µM	–
Cc1cc(C)[n+](CCc2ccc(S(N)(=O)=O)cc2)c(C(C)C)c1	–	–	2 µM	–
CCCc1cc(-c2ccccc2)cc(-c2ccccc2)[n+]1CCc1ccc(S(N)(=O)=O)cc1	–	–	112 µM	–
CCCCc1cc(-c2ccccc2)cc(-c2ccccc2)[n+]1Cc1ccc(S(N)(=O)=O)cc1	0.135 µM	2.1 µM	300 µM	0.595 µM
Cc1cc(C)[n+](-c2ccc(S(N)(=O)=O)cc2)c(C)c1	–	–	10 µM	–
CC(C)c1cc(-c2ccccc2)cc(-c2ccccc2)[n+]1-c1ccc(S(N)(=O)=O)cc1	> 0.5 µM	2.1 µM	–	–
Cc1cc(-c2ccccc2)cc(-c2ccccc2)[n+]1-c1ccc(S(N)(=O)=O)cc1	–	–	40 µM	–
Cc1cc(C)[n+](CCc2ccc(S(N)(=O)=O)cc2)c(C)c1C	0.008 µM	0.021 µM	2 µM	–
Cc1cc(C)[n+](-c2ccc(S(N)(=O)=O)cc2)c(C)c1C	–	–	5 µM	–
Cc1cc(C)[n+](Cc2ccc(S(N)(=O)=O)cc2)c(C)c1	–	–	7 µM	0.05 µM

Structure (SMILES)	Ki [1]	Ki [2]	Ki [3]	Ki [4]
Cc1cc(C)[n+](Cc2ccc(S(N)(=O)=O)cc2)c(C)c1C	–	–	3 µM	–
CC(C)(C)c1cc(-c2ccccc2)cc(-c2ccccc2)[n+]1CCc1ccc(S(N)(=O)=O)cc1	> 0.5 µM	–	–	–
NS(=O)(=O)c1ccc(-[n+]2c(-c3ccccc3)cc(-c3ccccc3)cc2-c2ccccc2)cc1	> 0.5 µM	–	290 µM	–
Cc1cc(-c2ccccc2)cc(C)[n+]1-c1ccc(S(N)(=O)=O)cc1	–	–	7 µM	0.06 µM
CCc1cc(-c2ccccc2)cc(CC)[n+]1CCc1ccc(S(N)(=O)=O)cc1	0.008 µM	0.021 µM	1 µM	–
CCCc1cc(-c2ccccc2)cc(-c2ccccc2)[n+]1-c1ccc(S(N)(=O)=O)cc1	> 0.5 µM	–	–	–
CCCc1cc(-c2ccccc2)cc(CCC)[n+]1-c1ccc(S(N)(=O)=O)cc1	–	–	10 µM	–
CCc1cc(-c2ccccc2)cc(-c2ccccc2)[n+]1Cc1ccc(S(N)(=O)=O)cc1	0.079 µM	0.983 µM	42 µM	0.314 µM
Cc1cc(-c2ccccc2)cc(C)[n+]1CCc1ccc(S(N)(=O)=O)cc1	–	–	1 µM	–
Cc1cc(C)[n+](Cc2ccc(S(N)(=O)=O)cc2)c(C(C)C)c1	–	–	6 µM	0.05 µM
Cc1cc(C(C)C)[n+](Cc2ccc(S(N)(=O)=O)cc2)c(C(C)C)c1	–	0.144 µM	–	–
NS(=O)(=O)c1ccc(C[n+]2c(-c3ccccc3)cc(-c3ccccc3)cc2-c2ccccc2)cc1	0.12 µM	1.96 µM	280 µM	–
CC(C)c1cc(-c2ccccc2)cc(C(C)C)[n+]1CCc1ccc(S(N)(=O)=O)cc1	–	–	6 µM	0.021 µM
CCCCc1cc(-c2ccccc2)cc(-c2ccccc2)[n+]1CCc1ccc(S(N)(=O)=O)cc1	0.12 µM	–	290 µM	–
CC(C)c1cc(-c2ccccc2)cc(C(C)C)[n+]1-c1ccc(S(N)(=O)=O)cc1	–	–	5 µM	–
CCc1cc(-c2ccccc2)cc(CC)[n+]1-c1ccc(S(N)(=O)=O)cc1	–	–	6 µM	0.06 µM
CCCCc1cc(-c2ccccc2)cc(-c2ccccc2)[n+]1-c1ccc(S(N)(=O)=O)cc1	> 0.5 µM	–	–	–
